# Source: PubChem BioAssay AID330 (DTP/NCI, 2004)
# Several values for one entry are separate records, joined by “and”; a condition that tells them apart may be missing. Identical values can stand only once. Toxic doses and inconclusive results are not listed. Square brackets hold non-standard residues; d marks the D form. Peptide text beside a SMILES is read from it. * marks the point of attachment. ξ: configuration not given here. Cbz = O=C(OCc1ccccc1)*; ξT = CC(O)C(N)C(=O)O; OBn = c1ccc(CO*)cc1
# Test system: P388 leukemia ip, CD2F1 mice, survival T/C
# Experiment: NCI In Vivo Anticancer Drug Screen. Data for tumor model P388 Leukemia (intraperitoneal) in CD2F1 (CDF1) mice
# Conditions: endpoint: median survival time, higher = longer survival
# Procedure, shortened: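 Mice carrying the transplanted tumor received test compound or vehicle. Survival was recorded in each group, and the value is the treated-group measurement divided by that of the vehicle-treated control group.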
# [1] = dose: 50.0 mg/kg/injection, schedule: Q01DX009 (ip), vehicle: Klucel (hydroxypropylcellulose) (HPC)
# [2] = dose: 50.0 mg/kg/injection, schedule: Q01DX005 (ip), vehicle: saline with Tween-80
# [3] = dose: 100.0 mg/kg/injection, schedule: Q01DX005 (ip), vehicle: saline with Tween-80
# [4] = dose: 200.0 mg/kg/injection, schedule: Q01DX005 (ip), vehicle: saline with Tween-80
# [5] = dose: 60.0 mg/kg/injection, schedule: Q01DX005 (ip), vehicle: saline with Tween-80
# [6] = dose: 120.0 mg/kg/injection, schedule: Q01DX005 (ip), vehicle: saline with Tween-80
# [7] = dose: 240.0 mg/kg/injection, schedule: Q01DX005 (ip), vehicle: saline with Tween-80
# [8] = dose: 100.0 mg/kg/injection, schedule: Q04DX003 (ip), vehicle: saline with Tween-80
# [9] = dose: 50.0 mg/kg/injection, schedule: Q01DX005 (ip), vehicle: Klucel (hydroxypropylcellulose) (HPC)
# [10] = dose: 100.0 mg/kg/injection, schedule: Q01DX005 (ip), vehicle: Klucel (hydroxypropylcellulose) (HPC)
# [11] = dose: 200.0 mg/kg/injection, schedule: Q01DX005 (ip), vehicle: Klucel (hydroxypropylcellulose) (HPC)
# [12] = dose: 12.5 mg/kg/injection, schedule: Q01DX009 (ip), vehicle: Klucel (hydroxypropylcellulose) (HPC)
# [13] = dose: 200.0 mg/kg/injection, schedule: Q01DX009 (ip), vehicle: saline with Tween-80
# [14] = dose: 50.0 mg/kg/injection, schedule: Q01DX009 (ip), vehicle: other
# [15] = dose: 100.0 mg/kg/injection, schedule: Q01DX009 (ip), vehicle: other
# [16] = dose: 200.0 mg/kg/injection, schedule: Q01DX009 (ip), vehicle: other
# [17] = dose: 50.0 mg/kg/injection, schedule: Q01DX009 (ip), vehicle: saline with Tween-80
# [18] = dose: 100.0 mg/kg/injection, schedule: Q01DX009 (ip), vehicle: saline with Tween-80
# [19] = dose: 100.0 mg/kg/injection, schedule: Q01DX009 (ip), vehicle: saline
# [20] = dose: 200.0 mg/kg/injection, schedule: Q01DX009 (ip), vehicle: saline
# [21] = dose: 12.5 mg/kg/injection, schedule: Q01DX005 (ip), vehicle: saline with Tween-80
# [22] = dose: 25.0 mg/kg/injection, schedule: Q01DX005 (ip), vehicle: saline with Tween-80
compound,measurement,setting,value
CCn1c2ccccc2c2cc(NS(=O)(=O)c3ccccc3)ccc21,T/C,[1],103 % of control
same,T/C,"dose: 100.0 mg/kg/injection, schedule: Q01DX009 (ip), vehicle: Klucel (hydroxypropylcellulose) (HPC)",103 % of control
same,T/C,"dose: 200.0 mg/kg/injection, schedule: Q01DX009 (ip), vehicle: Klucel (hydroxypropylcellulose) (HPC)",100 % of control
O=C(N=Nc1ccccc1)Nc1ccc(Cl)cc1,T/C,[2],100 % of control
same,T/C,[3],100 % of control
same,T/C,[4],90 % of control
C[C@]12CCC(=O)C[C@@H]1CC[C@@H]1[C@@H]2CC[C@]2(C)[C@@H]3OCCC[C@H]3C[C@@H]12,T/C,[5],91 % of control
same,T/C,[6],89 % of control
same,T/C,[7],90 % of control
Cc1cc2ncn(CC(=O)O)c2cc1C,T/C,"dose: 50.0 mg/kg/injection, schedule: Q04DX003 (ip), vehicle: saline with Tween-80",100 % of control
same,T/C,[8],90 % of control
CNC(=O)N(CCO)/N=C\c1ccc([N+](=O)[O-])o1,T/C,[9],99 % of control
same,T/C,[10],97 % of control
same,T/C,[11],103 % of control
CC(/C=C/C1(C)C(C)CCC(=O)C1C)=C\Cc1c(O)c(Cl)c(C)c(C=O)c1O (stereo not given),T/C,"dose: 3.12 mg/kg/injection, schedule: Q01DX009 (ip), vehicle: Klucel (hydroxypropylcellulose) (HPC)",101 % of control and 103 % of control
same,T/C,"dose: 6.25 mg/kg/injection, schedule: Q01DX009 (ip), vehicle: Klucel (hydroxypropylcellulose) (HPC)",103 % of control and 106 % of control
same,T/C,[12],106 % of control and 113 % of control
CCOc1ccc(NS(=O)(=O)c2ccc(F)cc2)cc1,T/C,[5],99 % of control
same,T/C,[6],88 % of control
same,T/C,[7],95 % of control
ClC1CCC[N-]C1.ClC1CCC[N-]C1.[Cl][Pt+2][Cl] (stereo not given),T/C,"dose: 0.78 mg/kg/injection, schedule: Q01DX009 (ip), vehicle: saline",97 % of control
same,T/C,"dose: 1.56 mg/kg/injection, schedule: Q01DX009 (ip), vehicle: saline",97 % of control
same,T/C,"dose: 3.13 mg/kg/injection, schedule: Q01DX009 (ip), vehicle: saline",101 % of control
same,T/C,"dose: 6.25 mg/kg/injection, schedule: Q01DX009 (ip), vehicle: saline",96 % of control
same,T/C,[12],118 % of control and 123 % of control
same,T/C,"dose: 12.5 mg/kg/injection, schedule: Q01DX009 (ip), vehicle: saline",108 % of control
same,T/C,"dose: 25.0 mg/kg/injection, schedule: Q01DX009 (ip), vehicle: Klucel (hydroxypropylcellulose) (HPC)",121 % of control
same,T/C,[1],101 % of control and 122 % of control
CC(Nc1ccc([N+](=O)[O-])c2nonc12)C(=O)O (stereo not given),T/C,"dose: 6.25 mg/kg/injection, schedule: Q01DX009 (ip), vehicle: saline with Tween-80",108 % of control
same,T/C,"dose: 12.5 mg/kg/injection, schedule: Q01DX009 (ip), vehicle: saline with Tween-80",100 % of control
same,T/C,"dose: 25.0 mg/kg/injection, schedule: Q01DX009 (ip), vehicle: saline with Tween-80",111 % of control
same,T/C,[13],86 % of control
CC1=CC(=C2C(=O)c3ccccc3C2=O)N(CCN2CCCCC2)C=C1,T/C,[9],93 % of control
same,T/C,[10],102 % of control
same,T/C,[11],93 % of control
O=C1CCCCC2CC2C1=O (stereo not given) (tested in a mixture with another compound),T/C,[14],101 % of control
same,T/C,[15],100 % of control
same,T/C,[16],108 % of control
CN(C)CCCn1c2c(c3ccccc31)CCCCC2,T/C,[2],97 % of control
same,T/C,[3],101 % of control
same,T/C,[4],94 % of control
CCCCCOn1nnc2ccccc21,T/C,[8],101 % of control
same,T/C,"dose: 200.0 mg/kg/injection, schedule: Q04DX003 (ip), vehicle: saline with Tween-80",101 % of control
same,T/C,"dose: 400.0 mg/kg/injection, schedule: Q04DX003 (ip), vehicle: saline with Tween-80",101 % of control
CCCCN(CCNc1cc(OC)cc2cccnc12)C(C)CC (stereo not given),T/C,"dose: 12.5 mg/kg/injection, schedule: Q01DX005 (ip), vehicle: saline",112 % of control
same,T/C,"dose: 25.0 mg/kg/injection, schedule: Q01DX005 (ip), vehicle: saline",119 % of control
same,T/C,"dose: 50.0 mg/kg/injection, schedule: Q01DX005 (ip), vehicle: saline",98 % of control and 104 % of control
CSc1ncnc2sc(NN)nc12,T/C,"dose: 100.0 mg/kg/injection, schedule: Q01DX001 (ip), vehicle: distilled water + alcohol",94 % of control
same,T/C,"dose: 200.0 mg/kg/injection, schedule: Q01DX001 (ip), vehicle: distilled water + alcohol",94 % of control
same,T/C,"dose: 400.0 mg/kg/injection, schedule: Q01DX001 (ip), vehicle: distilled water + alcohol",102 % of control
CS(=O)(=O)C(CCC(=O)c1ccc([N+](=O)[O-])cc1)C(=O)c1ccccc1 (stereo not given),T/C,[9],98 % of control
same,T/C,[10],96 % of control
same,T/C,[11],104 % of control
COc1ccc(S(=O)(=O)F)cc1NC(C)=O,T/C,"dose: 60.0 mg/kg/injection, schedule: Q01DX005 (ip), vehicle: Klucel (hydroxypropylcellulose) (HPC)",105 % of control
same,T/C,"dose: 120.0 mg/kg/injection, schedule: Q01DX005 (ip), vehicle: Klucel (hydroxypropylcellulose) (HPC)",101 % of control
COc1cc(CN)ccc1O,T/C,[17],103 % of control
same,T/C,[18],110 % of control
same,T/C,[19],104 % of control
same,T/C,[13],103 % of control
same,T/C,[20],101 % of control
same,T/C,"dose: 400.0 mg/kg/injection, schedule: Q01DX009 (ip), vehicle: saline with Tween-80",104 % of control
same,T/C,"dose: 400.0 mg/kg/injection, schedule: Q01DX009 (ip), vehicle: saline",104 % of control
same,T/C,"dose: 600.0 mg/kg/injection, schedule: Q01DX009 (ip), vehicle: saline",107 % of control
CC(O)C(NC(=O)OCc1ccccc1)C(=O)NCC(=O)NCC(=O)OCc1ccccc1 (stereo not drawn) (Cbz-[ξT]-Gly-Gly-OBn),T/C,[2],106 % of control
same,T/C,[3],100 % of control
same,T/C,[4],106 % of control
CC1(C)C(c2ccccc2)C1(Cl)Cl (stereo not given),T/C,"dose: 100.0 mg/kg/injection, schedule: Q04DX002 (ip), vehicle: saline with Tween-80",99 % of control
same,T/C,"dose: 200.0 mg/kg/injection, schedule: Q04DX002 (ip), vehicle: saline with Tween-80",93 % of control
CCN(CC)CCOC(=O)c1ccc(NC(=O)COc2ccc3ccccc3c2)cc1,T/C,"dose: 25.0 mg/kg/injection, schedule: Q01DX009 (ip), vehicle: other",88 % of control and 97 % of control
same,T/C,[14],88 % of control and 102 % of control
same,T/C,[15],86 % of control and 105 % of control
same,T/C,[16],102 % of control and 97 % of control
same,T/C,"dose: 400.0 mg/kg/injection, schedule: Q01DX009 (ip), vehicle: other",100 % of control and 109 % of control
CNC(=O)Oc1cccc(N=CN(C)C)c1,T/C,"dose: 0.93 mg/kg/injection, schedule: Q01DX005 (ip), vehicle: saline",97 % of control
same,T/C,"dose: 1.87 mg/kg/injection, schedule: Q01DX005 (ip), vehicle: saline",101 % of control
same,T/C,"dose: 3.75 mg/kg/injection, schedule: Q01DX005 (ip), vehicle: saline",95 % of control
O=C(OC(c1ccccc1)c1ccccc1)C1CSCN1C(=O)OCc1ccccc1[N+](=O)[O-] (stereo not given),T/C,[2],108 % of control
same,T/C,[3],110 % of control
same,T/C,[4],100 % of control
Cc1c2oc(=O)cc(-c3ccccc3)c2cc2c(=O)ccoc12,T/C,[21],97 % of control
same,T/C,[22],92 % of control
same,T/C,[2],97 % of control
same,T/C,[3],86 % of control
same,T/C,[4],86 % of control
CC(=O)Nc1ccc(C(c2c(O)cc(C)[nH]c2=O)c2c(O)cc(C)[nH]c2=O)cc1,T/C,[17],104 % of control
same,T/C,[18],112 % of control
same,T/C,[13],112 % of control
COc1cc2c(c(OC)c1OC)-c1ccc(OC)c(=O)cc1[C@@H](N(C)C(C)=O)CC2,T/C,"dose: 0.31 mg/kg/injection, schedule: Q01DX009 (ip), vehicle: Klucel (hydroxypropylcellulose) (HPC)",157 % of control and 187 % of control
same,T/C,"dose: 0.62 mg/kg/injection, schedule: Q01DX009 (ip), vehicle: Klucel (hydroxypropylcellulose) (HPC)",181 % of control
Cc1ccc(NC(=O)Oc2cc(C)c(Cl)cc2Br)cc1Cl,T/C,"dose: 50.0 mg/kg/injection, schedule: Q01DX009 (ip), vehicle: saline",100 % of control
same,T/C,[19],107 % of control
same,T/C,[20],116 % of control
CCCn1c(C)nc2cc(C)cc(N)c21,T/C,[21],100 % of control
same,T/C,[22],89 % of control
same,T/C,[2],90 % of control and 94 % of control
